# According to ChEMBL document CHEMBL5241114, “A comprehensive review of BET-targeting PROTACs for cancer therapy” (Bioorg Med Chem, 2022):
# Experiments:
# SUD4 = assay: Antiproliferative activity against human SU-DHL-4 cells assessed as reduction in cell viability measured after 48 hrs by MTT assay; type: functional
# [1] = molecular target: T1, Bromodomain-containing protein 4 (Homo sapiens, UniProt O60885); assay: Induction of BRD4 degradation in human HCT-116 cells assessed as downregulation of c-Myc expression; type: cell-based
# [2] = molecular target: Protein fem-1 homolog B/Folliculin-interacting protein 1 (Homo sapiens, UniProt Q8TF40+Q9UK73); assay: Inhibition of FEMIB/FNIP1 interaction in human HEK293T cells; type: cell-based
# Chain of Protein fem-1 homolog B/Folliculin-interacting protein 1 (Q8TF40 whole entry): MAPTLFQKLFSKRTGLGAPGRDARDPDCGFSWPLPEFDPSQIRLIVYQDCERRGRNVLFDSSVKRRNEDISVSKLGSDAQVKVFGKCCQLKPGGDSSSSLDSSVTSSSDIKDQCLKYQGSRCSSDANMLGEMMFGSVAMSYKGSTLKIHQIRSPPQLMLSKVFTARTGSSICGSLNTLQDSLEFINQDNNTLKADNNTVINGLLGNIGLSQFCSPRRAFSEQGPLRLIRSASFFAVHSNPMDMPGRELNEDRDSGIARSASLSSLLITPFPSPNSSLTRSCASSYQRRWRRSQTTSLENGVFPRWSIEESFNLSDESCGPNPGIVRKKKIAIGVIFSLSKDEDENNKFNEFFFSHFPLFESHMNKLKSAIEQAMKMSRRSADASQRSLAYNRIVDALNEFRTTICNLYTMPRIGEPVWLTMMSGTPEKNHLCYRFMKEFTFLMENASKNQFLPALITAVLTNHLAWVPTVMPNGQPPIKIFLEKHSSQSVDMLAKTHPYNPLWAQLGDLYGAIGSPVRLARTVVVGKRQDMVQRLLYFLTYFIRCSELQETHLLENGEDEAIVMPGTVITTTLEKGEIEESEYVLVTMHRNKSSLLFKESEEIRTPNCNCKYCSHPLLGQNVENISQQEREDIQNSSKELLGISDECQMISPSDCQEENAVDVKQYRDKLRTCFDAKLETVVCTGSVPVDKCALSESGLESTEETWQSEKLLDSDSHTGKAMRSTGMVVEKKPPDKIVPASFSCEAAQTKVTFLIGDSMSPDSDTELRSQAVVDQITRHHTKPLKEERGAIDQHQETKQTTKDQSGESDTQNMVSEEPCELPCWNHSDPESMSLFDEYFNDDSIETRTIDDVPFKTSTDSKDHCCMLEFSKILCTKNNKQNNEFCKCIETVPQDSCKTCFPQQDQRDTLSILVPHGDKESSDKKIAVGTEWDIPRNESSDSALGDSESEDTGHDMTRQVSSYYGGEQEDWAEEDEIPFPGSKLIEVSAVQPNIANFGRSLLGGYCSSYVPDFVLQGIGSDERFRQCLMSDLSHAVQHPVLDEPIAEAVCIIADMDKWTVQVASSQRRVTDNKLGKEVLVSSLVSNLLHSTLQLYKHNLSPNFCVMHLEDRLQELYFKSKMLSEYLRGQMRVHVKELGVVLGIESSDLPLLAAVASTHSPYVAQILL
# Chain of Protein fem-1 homolog B/Folliculin-interacting protein 1 (Q9UK73 whole entry): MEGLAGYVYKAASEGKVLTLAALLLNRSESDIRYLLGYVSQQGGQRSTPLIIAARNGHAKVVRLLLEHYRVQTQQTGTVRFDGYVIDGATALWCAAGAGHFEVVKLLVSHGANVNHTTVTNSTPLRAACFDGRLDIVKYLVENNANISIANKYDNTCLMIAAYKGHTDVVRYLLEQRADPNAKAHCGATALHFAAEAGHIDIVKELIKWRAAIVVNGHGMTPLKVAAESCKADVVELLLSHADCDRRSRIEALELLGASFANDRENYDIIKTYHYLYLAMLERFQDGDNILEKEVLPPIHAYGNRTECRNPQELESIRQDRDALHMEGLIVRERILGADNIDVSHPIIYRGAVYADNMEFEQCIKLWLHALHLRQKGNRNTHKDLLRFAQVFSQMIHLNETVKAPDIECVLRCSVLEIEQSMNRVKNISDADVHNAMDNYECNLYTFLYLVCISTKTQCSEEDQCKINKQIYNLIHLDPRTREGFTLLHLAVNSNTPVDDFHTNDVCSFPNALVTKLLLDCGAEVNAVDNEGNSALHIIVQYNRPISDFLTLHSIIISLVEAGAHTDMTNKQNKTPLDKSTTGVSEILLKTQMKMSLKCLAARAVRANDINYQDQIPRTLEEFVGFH
# [3] = molecular target: Folliculin-interacting protein 1 (Homo sapiens, UniProt Q8TF40); assay: Inhibition of FNIP1 in human HEK293T cells; type: cell-based
# Chain of Folliculin-interacting protein 1 (Q8TF40 whole entry): as the sequence (Q8TF40 whole entry) above
# MDA-MB-468 = assay: Antiproliferative activity against human MDA-MB-468 cells assessed as cell growth inhibition; type: functional
# [4] = molecular target: T1, Bromodomain-containing protein 4; assay: Induction of BRD4 degradation in human MDA-MB-468 cells at 0.5 uM measured at 48 hrs relative to control; type: cell-based
# MDA-MB-231 = assay: Antiproliferative activity against human MDA-MB-231 cells assessed as cell growth inhibition; type: functional
# MV4-11 [5] = assay: Cytotoxicity against human MV4-11 cells; type: functional, cell-based
# [6] = molecular target: T1, Bromodomain-containing protein 4; assay: Induction of BRD4 degradation in human HD-MB03 cells measured after 12 hrs; type: cell-based
# [7] = molecular target: T1, Bromodomain-containing protein 4; assay: Induction of BRD4 degradation in human MV4-11 cells measured after 24 hrs; type: cell-based
# [8] = molecular target: T1, Bromodomain-containing protein 4; assay: Induction of BRD4 degradation in human MV4-11 cells measured after 12 hrs; type: cell-based
# MV4-11 [9] = assay: Cytotoxicity against human MV4-11 cells measured after 96 hrs; type: functional, cell-based; conditions: MV4-11, 96 h
# [10] = molecular target: T1, Bromodomain-containing protein 4; assay: Induction of BRD4 degradation in human HD-MB03 cells at 100 nM measured at 72 hrs relative to control; type: cell-based
# [11] = molecular target: T1, Bromodomain-containing protein 4; assay: Induction of BRD4 degradation in human HAP1 cells; type: cell-based
# [12] = molecular target: T1, Bromodomain-containing protein 4; assay: Induction of BRD4 degradation in human HEK293T cells at 10 uM measured at 6 hrs relative to control; type: cell-based
# [13] = molecular target: T1, Bromodomain-containing protein 4; assay: Induction of BRD4 degradation in human HEK293T cells; type: cell-based
# [14] = molecular target: T1, Bromodomain-containing protein 4; assay: Induction of BRD4 degradation in human 231MFP cells; type: cell-based; conditions: 231mfp
# [15] = molecular target: T1, Bromodomain-containing protein 4; assay: Induction of BRD4 degradation in human SU-DHL-4 measured after 72 hrs relative to control; type: cell-based
# [16] = molecular target: T1, Bromodomain-containing protein 4; assay: Induction of BRD4 degradation in human SU-DHL-4 measured after 72 hrs; type: cell-based
smiles,measurement,setting,value
COc1cc(C(=O)NCCOCCOCCOCCNC(=O)C[C@@H]2N=C(c3ccc(Cl)cc3)c3c(sc(C)c3C)-n3c(C)nnc32)ccc1NC(=O)[C@@H]1N[C@@H](CC(C)(C)C)[C@](C#N)(c2ccc(Cl)cc2F)[C@H]1c1cccc(Cl)c1F,GC50,SUD4,25170 nM
same,DC50,[1],36 nM
N#CCCN(C(=O)CCl)c1ccc2c(c1)OCCO2,IC50,[2],2200 nM
same,IC50,[3],670 nM
CCOC(=O)C[C@H](c1ccc(C)c(CN2C[C@H](C)Oc3ccccc3S2(=O)=O)c1)c1cc(OCCNC(=O)CNC(=O)C[C@H]2N=C(c3ccc(Cl)cc3)c3c(sc(C)c3C)-n3c(C)nnc32)c2c(c1)nnn2C,GI50,MDA-MB-468,280 nM
same,Emax,[4],80%
same,GI50,MDA-MB-231,130 nM
Cc1sc2c(c1C)C(c1ccc(Cl)cc1)=N[C@@H](CC(=O)NCCCCCNC(=O)COc1ccc(C3CCC(=O)NC3=O)cc1)c1nnc(C)n1-2 (stereo not given in full),IC50,MV4-11 [5],1.83 nM
same,DC50,[6],24 nM
same,DC50,[7],0.16 nM
same,DC50,[8],0.87 nM
same,IC50,MV4-11 [9],0.003 nM
same,Emax,[10],87%
C#CCCCC(=O)N1CCOc2ccc(N(CCC#N)C(=O)CCl)cc21,DC50,[11],313 nM
same,Emax,[12],94%
same,DC50,[13],250 nM
same,DC50,[14],196 nM
Cc1sc2c(c1C)C(c1ccc(Cl)cc1)=N[C@@H](CC(=O)NCCOCCOCCNC(=O)c1cccc(S(=O)(=O)Nc3ccc(C)c4c(C#N)c[nH]c34)c1)c1nnc(C)n1-2,Emax,[15],98%
same,GC50,SUD4,4640 nM
same,DC50,[16],10800 nM
